Our source for the IC50 values is US12012398B2, “Bicyclic compounds as androgen receptor modulators” (NIDO BIOSCIENCES, INC., priority 2021, dated 2024).

Molecules are shown by their SMILES.

The experiment has as its system LNCaP cells expressing ARR2PB-FireflyLuc and CMV-RenillaLuc. As to the kind of experiment: LNCaP ARR2PB-FireflyLuc reporter assay, antagonist mode. It is filed as cell-based. Particulars: Homo sapiens, LNCaP, 48 h, +0.5 nM DHT, 48 h at 37° C., read-out: LNCap Antagonist Archive: IC50. Summed up:
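LNCaP cells carrying ARR2PB-firefly and CMV-Renilla luciferase reporters were exposed to compound with 0.5 nM DHT for 48 h at 37° C. Remaining activity was scaled between 0.5 nM DHT alone (high) and 10 uM enzalutamide + 0.5 nM DHT (low). IC50 from non-linear regression, reported in bins A–D.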
In the case of `CN(C(=O)c1cc2cccc(C(F)(F)F)c2[nH]1)c1ccc(C#N)cc1` [Example 27, N-(4-cyanophenyl)-N-methyl-7-(trifluoromethyl)-1H-indole-2-carboxamide], the IC50 was in the range of 1000 to 10000 nM.

Take `C[C@@H]1OCC[C@@H]1NC(=O)c1cc2cccc(Cl)c2[nH]1` [Example 62, 7-chloro-N-[(2S,3S)-2-methyloxolan-3-yl]-1H-indole-2-carboxamide]: the IC50 lay within 1000 to 10000 nM.

Regarding `CN(C(=O)c1cc2cccc(C#N)c2o1)c1ccc(F)cc1` [Example 34, 7-cyano-N-(4-fluorophenyl)-N-methyl-1-benzofuran-2-carboxamide], the IC50 was above 10000 nM.

In the case of `O=C(c1cc2cccc(Cl)c2[nH]1)N1CCCC1` [Example 71, 7-chloro-2-(pyrrolidine-1-carbonyl)-1H-indole], the IC50 was above 10000 nM.

`COCCN(C(=O)c1cc2ccc(F)cc2[nH]1)c1ccc(C#N)cn1` [Example 159]: the IC50 fell in the range of 1000 to 10000 nM.

With `N#Cc1cccc2cc(C(=O)N(c3ccc(F)cc3)C3CCOC3)[nH]c12` (stereo not drawn) [Example 84, 7-cyano-N-(4-fluorophenyl)-N-(oxolan-3-yl)-1H-indole-2-carboxamide], the IC50 lay in the range of 100 to 1000 nM.

Consider `O=C(NC12CC(O)(C1)C2)c1cc2cccc(Cl)c2[nH]1` [Example 115, 7-chloro-N-[3-hydroxybicyclo[1.1.1]pentan-1-yl]-1H-indole-2-carboxamide], for which the IC50 was above 10000 nM.

Consider `CC(C)N(Cc1cccnc1)C(=O)c1cc2ccc(F)cc2[nH]1` [Example 9, 6-fluoro-N-isopropyl-N-(pyridin-3-ylmethyl)-1H-indole-2-carboxamide], for which the IC50 fell in the range of 1000 to 10000 nM.

Turning to `CN(C(=O)c1cc2ccc(F)cc2[nH]1)c1ccccn1` [Example 13, 6-fluoro-N-methyl-N-(pyridin-2-yl)-1H-indole-2-carboxamide], the IC50 was in the range of 1000 to 10000 nM.

`CN(C(=O)c1cc2cccc(C#N)c2[nH]1)c1ccccc1` [Example 21, 7-cyano-N-methyl-N-phenyl-1H-indole-2-carboxamide]: the IC50 fell in the range of 100 to 1000 nM.

As to `CN(C(=O)c1cc2cccc(C(F)(F)F)c2[nH]1)c1ccccn1` [Example 26, N-methyl-N-(pyridin-2-yl)-7-(trifluoromethyl)-1H-indole-2-carboxamide], the IC50 lay in the range of 100 to 1000 nM.

Consider `COCCN(C(=O)c1cc2ccc(F)cc2[nH]1)c1ccn(C)n1` [Example 57, 6-fluoro-N-(2-methoxyethyl)-N-(1-methyl-1H-pyrazol-3-yl)-1H-indole-2-carboxamide], for which the IC50 is above 10000 nM.

As to `Cc1ncoc1CN(C)C(=O)c1cc2cccc(Cl)c2[nH]1` [Example 97, 7-chloro-N-methyl-N-[(4-methyl-1,3-oxazol-5-yl)methyl]-1H-indole-2-carboxamide], the half-maximal inhibitory concentration (IC50) was above 10000 nM.

Turning to `COCCN(C(=O)c1cc2cccc(Cl)c2[nH]1)c1ccc(C#N)cc1F` [Example 79, 7-chloro-N-(4-cyano-2-fluorophenyl)-N-(2-methoxyethyl)-1H-indole-2-carboxamide], the IC50 fell in the range of 1000 to 10000 nM.

As for `O=C(NC12CC(F)(C1)C2)c1cc2ccnc(Cl)c2n1CCO` [Example 138, 7-chloro-N-{3-fluorobicyclo[1.1.1]pentan-1-yl}-1-(2-hydroxyethyl)pyrrolo[2,3-c]pyridine-2-carboxamide], the half-maximal inhibitory concentration (IC50) lay in the range of 1000 to 10000 nM.

Take `CC(C)N(CC1CCCO1)C(=O)c1cc2ccc(F)cc2[nH]1` (stereo not drawn) [Example 4, 6-fluoro-N-isopropyl-N-(oxolan-2-ylmethyl)-1H-indole-2-carboxamide]: the IC50 was above 10000 nM.

For the compound `O=C(NC12CC(C1)C2)c1cc2cccc(Cl)c2[nH]1` [Example 89, N-[bicyclo[1.1.1]pentan-1-yl]-7-chloro-1H-indole-2-carboxamide], the IC50 lay in the range of 100 to 1000 nM.

Regarding `CC1(C)CC(NC(=O)c2cc3cccc(Cl)c3[nH]2)CO1` (stereo not drawn) [Example 63, 7-chloro-N-(5,5-dimethyloxolan-3-yl)-1H-indole-2-carboxamide], the IC50 is above 10000 nM.

Turning to `CN(C(=O)c1cc2ccnc(OC3CC3)c2[nH]1)C12CC(F)(C1)C2` [Example 126, 7-cyclopropoxy-N-{3-fluorobicyclo[1.1.1]pentan-1-yl}-N-methyl-1H-pyrrolo[2,3-c]pyridine-2-carboxamide], the half-maximal inhibitory concentration (IC50) was above 10000 nM.

Take `CN(C(=O)c1cc2ccnc(Cl)c2[nH]1)C12CC(F)(C1)C2` [Example 98, 7-chloro-N-[3-fluorobicyclo[1.1.1]pentan-1-yl]-N-methyl-1H-pyrrolo[2,3-c]pyridine-2-carboxamide]: the IC50 fell in the range of 100 to 1000 nM.

With `Cn1c(C(=O)NC23CC(F)(C2)C3)cc2cccc(Cl)c21` [Example 114, 7-chloro-N-{3-fluorobicyclo[1.1.1]pentan-1-yl}-1-methylindole-2-carboxamide], the IC50 is below 100 nM.

Regarding `CN(C(=O)c1cc2ccc(F)cc2[nH]1)C12CC(C1)C2` [Example 93, N-[bicyclo[1.1.1]pentan-1-yl]-6-fluoro-N-methyl-1H-indole-2-carboxamide], the IC50 lay in the range of 100 to 1000 nM.

For the compound `CN(C(=O)c1cc2ccnc(Cl)c2[nH]1)C1CC(F)(F)C1` [Example 101, 7-chloro-N-(3,3-difluorocyclobutyl)-N-methyl-1H-pyrrolo[2,3-c]pyridine-2-carboxamide], the IC50 fell in the range of 1000 to 10000 nM.

Take `CN(C(=O)c1cc2cccc(Cl)c2[nH]1)c1ccc(C#N)cc1` [Example 33, 7-chloro-N-(4-cyanophenyl)-N-methyl-1H-indole-2-carboxamide]: the IC50 lay in the range of 1000 to 10000 nM.

Turning to `CC(C)N1CCC(N(C)C(=O)c2cc3cccc(Cl)c3[nH]2)C1` (stereo not drawn) [Example 41, 7-chloro-N-(1-isopropylpyrrolidin-3-yl)-N-methyl-1H-indole-2-carboxamide], the IC50 was above 10000 nM.

On to `CC(C)N(C)C(=O)c1cc2ccnc(Cl)c2n1C` [Example 134, 7-chloro-N-isopropyl-N,1-dimethylpyrrolo[2,3-c]pyridine-2-carboxamide], for which the IC50 was in the range of 100 to 1000 nM.

As to `COCCN(C(=O)c1cc2cccc(Cl)c2[nH]1)c1ccc(C#N)cc1` [Example 55, 7-chloro-N-(4-cyanophenyl)-N-(2-methoxyethyl)-1H-indole-2-carboxamide], the IC50 lay in the range of 100 to 1000 nM.

Take `CN(C(=O)c1cc2ccc(F)cc2[nH]1)c1ccccc1` [Example 59, 6-fluoro-N-methyl-N-phenyl-1H-indole-2-carboxamide]: the IC50 fell in the range of 100 to 1000 nM.

Regarding `CN(C(=O)c1cc2cccc(Cl)c2[nH]1)C1CCOC1` (stereo not drawn) [Example 31, 7-chloro-N-methyl-N-(oxolan-3-yl)-1H-indole-2-carboxamide], the 50% inhibitory concentration (IC50) was 100 to 1000 nM.

`Cc1nc(-c2c(C(=O)N(Cc3ccco3)C(C)C)[nH]c3cc(F)ccc23)ccc1N` [Example 1, 3-(5-amino-6-methylpyridin-2-yl)-6-fluoro-N-(furan-2-ylmethyl)-N-isopropyl-1H-indole-2-carboxamide]: the IC50 was above 10000 nM.

`CN(C(=O)c1cc2ccnc(Cl)c2[nH]1)C12CC(C1)C2` [Example 95, N-[bicyclo[1.1.1]pentan-1-yl]-7-chloro-N-methyl-1H-pyrrolo[2,3-c]pyridine-2-carboxamide]: the IC50 fell in the range of 100 to 1000 nM.

As to `Cc1c(C(=O)NC23CC(F)(C2)C3)[nH]c2c(Cl)cccc12` [Example 109, 7-chloro-N-[3-fluorobicyclo[1.1.1]pentan-1-yl]-3-methyl-1H-indole-2-carboxamide], the half-inhibitory concentration (IC50) was 100 to 1000 nM.

Consider `N#Cc1cccc2cc(C(=O)N(CC3CC3)c3ccccn3)[nH]c12` [Example 60, 7-((I1-azaneyl)ethynyl)-N-(cyclopropylmethyl)-N-(pyridin-2-yl)-1H-indole-2-carboxamide], for which the IC50 is above 10000 nM.
